Measured values taken from ChEMBL document CHEMBL1833945, “Synthesis and anticonvulsant activity of new N-Mannich bases derived from 5-cyclopropyl-5-phenyl- and 5-cyclopropyl-5-(4-chlorophenyl)-imidazolidine-2,4-diones” (Bioorg Med Chem, 2011).
Active and inactive are the calls of the source. The calls are words filed in the database; no cut-off is given here.

Assays:
Mus musculus [1] = experiment: Neurotoxicity in ip dosed CF1 albino mouse assessed as minimum dose required to cause impair in motor coordination after 0.5 hrs by rotarod test; type: toxicity, organism-based; settings: in vivo
Mus musculus [2] = experiment: Toxicity in subcutaneous pentylenetetrazole-induced CF1 albino mouse assessed as myoclonic jerks at 300 mg/kg, ip after 0.5 hrs; type: organism-based; parameters: dose 300 mg/kg; settings: in vivo, sc
Mus musculus [3] = experiment: Toxicity in subcutaneous pentylenetetrazole-induced CF1 albino mouse assessed as myoclonic jerks at 100 mg/kg, ip after 4 hrs; type: organism-based; parameters: dose 100 mg/kg; settings: in vivo, sc
Mus musculus [4] = experiment: Neurotoxicity in ip dosed CF1 albino mouse assessed as minimum dose required to cause impair in motor coordination after 4 hrs by rotarod test; type: toxicity, organism-based; settings: in vivo
Mus musculus [5] = experiment: Anticonvulsant activity in ip dosed CF1 albino mouse assessed as protection against maximal electroshock-induced seizures after 0.5 hrs; type: functional; settings: read-out: MED
Mus musculus [6] = experiment: Anticonvulsant activity in ip dosed CF1 albino mouse assessed as protection against maximal electroshock-induced seizures after 4 hrs; type: functional; settings: read-out: MED
[7] = Lipophilicity, log P of compound; type: physicochemical; settings: octanol/water
Mus musculus [8] = experiment: Neurotoxicity in CF1 albino mouse assessed as impair in motor coordination at 300 mg/kg, ip after 4 hrs by rotarod test; type: toxicity, organism-based; parameters: dose 300 mg/kg, route intraperitoneal; settings: in vivo
[9] = Neurotoxicity in oral dosed Sprague-Dawley albino rat assessed as motor impairment by rotarod test; type: toxicity, organism-based; settings: in vivo
Mus musculus [10] = experiment: Anticonvulsant activity in ip dosed CF1 albino mouse assessed as protection against subcutaneous pentylenetetrazole-induced seizures after 4 hrs; type: functional; settings: read-out: MED
Mus musculus [11] = experiment: Neurotoxicity in CF1 albino mouse assessed as impair in motor coordination at 300 mg/kg, ip after 0.5 hrs by rotarod test; type: toxicity, organism-based; parameters: dose 300 mg/kg, route intraperitoneal; settings: in vivo
Rattus norvegicus [12] = experiment: Neurotoxicity in Sprague-Dawley albino rat assessed as motor impairment at 50 mg/kg, po after 0.25 hrs by rotarod test; type: toxicity, organism-based; parameters: dose 50 mg/kg, route oral; settings: in vivo
Rattus norvegicus [13] = experiment: Neurotoxicity in Sprague-Dawley albino rat assessed as motor impairment at 50 mg/kg, po after 2 hrs by rotarod test; type: toxicity, organism-based; parameters: dose 50 mg/kg, route oral; settings: in vivo
Rattus norvegicus [14] = experiment: Anticonvulsant activity in po dosed Sprague-Dawley albino rat assessed as protection against maximal electroshock-induced seizures; type: functional
Rattus norvegicus [15] = experiment: Neurotoxicity in Sprague-Dawley albino rat assessed as motor impairment at 50 mg/kg, po after 4 hrs by rotarod test; type: toxicity, organism-based; parameters: dose 50 mg/kg, route oral; settings: in vivo
Mus musculus [16] = experiment: Anticonvulsant activity in CF1 albino mouse assessed as protection against maximal electroshock-induced seizures at 300 mg/kg, ip after 0.5 hrs; type: functional, organism-based; parameters: dose 300 mg/kg
Rattus norvegicus [17] = experiment: Anticonvulsant activity in Sprague-Dawley albino rat assessed as protection against subcutaneous pentylenetetrazole-induced seizures at 50 mg/kg, po after 4 hrs; type: functional, organism-based; parameters: dose 50 mg/kg
Rattus norvegicus [18] = experiment: Neurotoxicity in Sprague-Dawley albino rat assessed as motor impairment at 50 mg/kg, po after 1 hrs by rotarod test; type: toxicity, organism-based; parameters: dose 50 mg/kg, route oral; settings: in vivo
Mus musculus [19] = experiment: Anticonvulsant activity in ip dosed CF1 albino mouse assessed as protection against subcutaneous pentylenetetrazole-induced seizures after 0.5 hrs; type: functional; settings: read-out: MED
Mus musculus [20] = experiment: Anticonvulsant activity in CF1 albino mouse assessed as protection against maximal electroshock-induced seizures at 300 mg/kg, ip after 4 hrs; type: functional, organism-based; parameters: dose 300 mg/kg
Rattus norvegicus [21] = experiment: Anticonvulsant activity in Sprague-Dawley albino rat assessed as protection against subcutaneous pentylenetetrazole-induced seizures at 50 mg/kg, po after 0.25 hrs; type: functional, organism-based; parameters: dose 50 mg/kg
Rattus norvegicus [22] = experiment: Neurotoxicity in Sprague-Dawley albino rat assessed as motor impairment at 50 mg/kg, po after 0.5 hrs by rotarod test; type: toxicity, organism-based; parameters: dose 50 mg/kg, route oral; settings: in vivo
Rattus norvegicus [23] = experiment: Anticonvulsant activity in po dosed Sprague-Dawley albino rat assessed as time to peak effect; type: functional
Rattus norvegicus [24] = species on record: Rattus norvegicus
Description: Protective index, ratio of TD50 for neurotoxicity in Sprague-Dawley albino rat to ED50 for inhibition of subcutaneous pentylenetetrazole-induced seizures in Sprague-Dawley albino rat

Rattus norvegicus [25] = experiment: Anticonvulsant activity in Sprague-Dawley albino rat assessed as protection against maximal electroshock-induced seizures at 30 mg/kg, po after 0.25 hrs; type: functional, organism-based; parameters: dose 30 mg/kg
Mus musculus [26] = experiment: Anticonvulsant activity in CF1 albino mouse assessed as time to peak effect at 100 mg/kg, ip; type: functional; settings: route intraperitoneal
Rattus norvegicus [27] = experiment: Neurotoxicity in Sprague-Dawley albino rat assessed as motor impairment at 30 mg/kg, po after 0.25 hrs by rotarod test; type: toxicity, organism-based; parameters: dose 30 mg/kg, route oral; settings: in vivo
Rattus norvegicus [28] = experiment: Anticonvulsant activity in po dosed Sprague-Dawley albino rat assessed as protection against subcutaneous pentylenetetrazole-induced seizures; type: functional
Mus musculus [29] = experiment: Anticonvulsant activity in CF1 albino mouse assessed as protection against electrically-induced seizure at 100 mg/kg, ip after 1 hrs by 6Hz psychomotor seizure test; type: functional, organism-based; parameters: dose 100 mg/kg
Mus musculus [30] = experiment: Neurotoxicity in CF1 albino mouse assessed as loss of rotard grasping at 300 mg/kg, ip after 4 hrs by rotarod test; type: toxicity, organism-based; parameters: dose 300 mg/kg, route intraperitoneal; settings: in vivo
Rattus norvegicus [31] = experiment: Anticonvulsant activity in Sprague-Dawley albino rat assessed as protection against maximal electroshock-induced seizures at 30 mg/kg, po after 4 hrs; type: functional, organism-based; parameters: dose 30 mg/kg
Mus musculus [32] = experiment: Anticonvulsant activity in ip dosed CF1 albino mouse assessed as protection against electrically-induced seizure by 6Hz psychomotor seizure test; type: functional
Rattus norvegicus [33] = experiment: Neurotoxicity in Sprague-Dawley albino rat assessed as motor impairment at 30 mg/kg, po after 0.5 hrs by rotarod test; type: toxicity, organism-based; parameters: dose 30 mg/kg, route oral; settings: in vivo
Rattus norvegicus [34] = experiment: Neurotoxicity in Sprague-Dawley albino rat assessed as motor impairment at 30 mg/kg, po after 1 hrs by rotarod test; type: toxicity, organism-based; parameters: dose 30 mg/kg, route oral; settings: in vivo
Rattus norvegicus [35] = experiment: Anticonvulsant activity in Sprague-Dawley albino rat assessed as protection against maximal electroshock-induced seizures at 30 mg/kg, po after 2 hrs; type: functional, organism-based; parameters: dose 30 mg/kg
Rattus norvegicus [36] = experiment: Anticonvulsant activity in Sprague-Dawley albino rat assessed as protection against maximal electroshock-induced seizures at 30 mg/kg, po after 0.5 hrs; type: functional, organism-based; parameters: dose 30 mg/kg
Rattus norvegicus [37] = species on record: Rattus norvegicus; experiment: Protective index, ratio of TD50 for neurotoxicity in Sprague-Dawley albino rat to ED50 for inhibition of maximal electroshock-induced seizures in Sprague-Dawley albino rat; type: functional
Mus musculus [38] = experiment: Neurotoxicity in CF1 albino mouse assessed as loss of rotard grasping at 300 mg/kg, ip after 0.5 hrs by rotarod test; type: toxicity, organism-based; parameters: dose 300 mg/kg, route intraperitoneal; settings: in vivo
Mus musculus [39] = experiment: Anticonvulsant activity in CF1 albino mouse assessed as protection against electrically-induced seizure at 100 mg/kg, ip after 0.5 hrs by 6Hz psychomotor seizure test; type: functional, organism-based; parameters: dose 100 mg/kg
Rattus norvegicus [40] = experiment: Anticonvulsant activity in Sprague-Dawley albino rat assessed as protection against maximal electroshock-induced seizures at 30 mg/kg, po after 1 hrs; type: functional, organism-based; parameters: dose 30 mg/kg
Rattus norvegicus [41] = experiment: Neurotoxicity in Sprague-Dawley albino rat assessed as motor impairment at 30 mg/kg, po after 2 hrs by rotarod test; type: toxicity, organism-based; parameters: dose 30 mg/kg, route oral; settings: in vivo
Mus musculus [42] = experiment: Anticonvulsant activity in CF1 albino mouse assessed as protection against electrically-induced seizure at 100 mg/kg, ip after 2 hrs by 6Hz psychomotor seizure test; type: functional, organism-based; parameters: dose 100 mg/kg
Rattus norvegicus [43] = experiment: Neurotoxicity in Sprague-Dawley albino rat assessed as motor impairment at 30 mg/kg, po after 4 hrs by rotarod test; type: toxicity, organism-based; parameters: dose 30 mg/kg, route oral; settings: in vivo
[44] = Neurotoxicity in ip dosed CF1 albino mouse assessed as impair in motor coordination by rotarod test; type: toxicity, organism-based; settings: in vivo
Mus musculus [45] = experiment: Neurotoxicity in CF1 albino mouse assessed as tremors at 300 mg/kg, ip after 0.5 hrs by rotarod test; type: toxicity, organism-based; parameters: dose 300 mg/kg, route intraperitoneal; settings: in vivo
Rattus norvegicus [46] = experiment: Anticonvulsant activity in Sprague-Dawley albino rat assessed as protection against subcutaneous pentylenetetrazole-induced seizures at 50 mg/kg, po after 0.5 hrs; type: functional, organism-based; parameters: dose 50 mg/kg
Mus musculus [47] = experiment: Neurotoxicity in CF1 albino mouse assessed as minimum dose causing loss of righting reflex at 300 mg/kg, ip after 4 hrs by rotarod test; type: toxicity, organism-based; parameters: dose 300 mg/kg, route intraperitoneal; settings: in vivo
Rattus norvegicus [48] = experiment: Anticonvulsant activity in Sprague-Dawley albino rat assessed as protection against subcutaneous pentylenetetrazole-induced seizures at 50 mg/kg, po after 2 hrs; type: functional, organism-based; parameters: dose 50 mg/kg
Rattus norvegicus [49] = experiment: Anticonvulsant activity in Sprague-Dawley albino rat assessed as protection against subcutaneous pentylenetetrazole-induced seizures at 50 mg/kg, po after 1 hrs; type: functional, organism-based; parameters: dose 50 mg/kg

Compound | minimal effective dose (Mus musculus [5]) | minimal effective dose (Mus musculus [6]) | logP [7] | TD50 [9] | minimal effective dose (Mus musculus [10]) | Activity (Rattus norvegicus [12]) | Activity (Rattus norvegicus [13]) | ED50 (Rattus norvegicus [14]) | Activity (Rattus norvegicus [15]) | Activity (Rattus norvegicus [18]) | minimal effective dose (Mus musculus [19]) | Activity (Rattus norvegicus [21]) | Activity (Rattus norvegicus [22]) | Time (Rattus norvegicus [23]) | PI (Rattus norvegicus [24]) | Time (Mus musculus [26]) | Activity (Rattus norvegicus [27]) | Activity (Mus musculus [30]) | Activity (Rattus norvegicus [33]) | Activity (Mus musculus [38]) | other results
O=C1NC(c2ccc(Cl)cc2)(C2CC2)C(=O)N1CN1CCN(CCc2ccccc2)CC1 (stereo not drawn) | 300 mg/kg | 300 mg/kg | 3.97 |  |  |  |  |  |  |  |  |  |  |  |  |  |  |  |  |  | MTC (Mus musculus [1]): 30 mg/kg; Activity (Mus musculus [2]): Toxic; Activity (Mus musculus [3]): Toxic; MTC (Mus musculus [4]): 30 mg/kg
CCC1(C)CC(=O)NC1=O (stereo not drawn) [ETHOSUXIMIDE] |  |  |  | > 500 mg/kg | 300 mg/kg | Non-toxic | Non-toxic | > 500 mg/kg | Non-toxic | Non-toxic | 100 mg/kg | inactive | Non-toxic | 2 h | >3 |  |  |  |  |  | Activity (Mus musculus [8]): Non-toxic; Activity (Mus musculus [11]): Non-toxic; Activity (Mus musculus [16]): inactive; Activity (Rattus norvegicus [17]): inactive; Activity (Mus musculus [20]): inactive
O=C1NC(=O)C(c2ccccc2)(C2CC2)N1 (stereo not drawn) | 30 mg/kg | 30 mg/kg | 1.66 | 77.6 mg/kg | 100 mg/kg | Non-toxic | Non-toxic | 5.76 mg/kg | Non-toxic | Non-toxic | 30 mg/kg | inactive | Non-toxic | 2 h | 1.35 | 2 h | Non-toxic | Toxic | Non-toxic | Toxic | Activity (Rattus norvegicus [25]): Active; ED50 (Rattus norvegicus [28]): 57.3 mg/kg; Activity (Mus musculus [29]): Active; Activity (Rattus norvegicus [31]): Active; ED50 (Mus musculus [32]): 26.1 mg/kg; Activity (Rattus norvegicus [34]): Non-toxic; Activity (Rattus norvegicus [35]): Active; Activity (Rattus norvegicus [36]): Active; PI (Rattus norvegicus [37]): 13.47; Activity (Mus musculus [39]): Active; Activity (Rattus norvegicus [40]): Active; Activity (Rattus norvegicus [41]): Non-toxic; Activity (Mus musculus [42]): Active; Activity (Rattus norvegicus [43]): Non-toxic
CC[C@@H](C(N)=O)N1CCCC1=O |  |  |  |  |  |  |  |  |  |  |  |  |  |  |  | 1 h |  |  |  |  | TD50 [44]: > 500 mg/kg
CCOC(=O)N1CCN(CN2C(=O)NC(c3ccccc3)(C3CC3)C2=O)CC1 (stereo not drawn) | 100 mg/kg | 100 mg/kg | 1.76 |  | 300 mg/kg |  |  |  |  |  | 100 mg/kg |  |  |  |  |  |  | Toxic |  | Toxic | Activity (Mus musculus [45]): Toxic
O=C1NC(c2ccccc2)(C2CC2)C(=O)N1CN1CCOCC1 (stereo not drawn) | 100 mg/kg | 30 mg/kg | 1.33 | < 150 mg/kg | 300 mg/kg | Non-toxic | Non-toxic | 13.9 mg/kg | Non-toxic | Non-toxic | 30 mg/kg | inactive | Non-toxic | 4 h |  |  | Non-toxic |  | Non-toxic | Toxic | Activity (Rattus norvegicus [46]): inactive; Activity (Rattus norvegicus [34]): Non-toxic; Activity (Mus musculus [47]): Toxic; PI (Rattus norvegicus [37]): <10.79; Activity (Rattus norvegicus [48]): Active; Activity (Rattus norvegicus [41]): Non-toxic; Activity (Rattus norvegicus [49]): inactive; Activity (Rattus norvegicus [43]): Non-toxic
